Experimental data taken from patent publication US9352015B2, “Antimicrobial peptides” (priority 2009, dated 2016).
≈ marks a conversion by molar mass, not a printed value. Where “and” joins values, the source holds several entries; their conditions need not be identical. Identical values can stand only once. Like-named read-outs stand apart in the source and are kept apart here.

What was measured:
[1] = system: Methicillin Resistant Staphylococcus aureus (MRSA) and Staphylococcus aureus; assay type: cell-based
Description: (§1) Minimal inhibitory concentrations (MICs) are determined using a standard microtiter dilution method, with 3 sets of determinations, in LB (Luria-Bertani) no-salt medium (10 g of tryptone and 5 g of yeast extract per liter). In some cases, Mueller Hinton (MH) medium or Brain Heart Infusion (BHI) medium is used.
(§2) Briefly, cells were grown overnight at 37° C. in LB and diluted in the same medium. Serial dilutions of the peptides are added to the microtiter plates in a volume of 100 μl followed by 10 μl of bacteria to give a final inoculum of 5×10^5 colony-forming units/ml. Plates are incubated at 37° C. for 24 hours and MICs determined as the lowest peptide concentration that inhibited growth. Alternatively, minimal inhibitory concentrations are determined using a standard microtiter dilution method in a Mueller-Hinton (MH) medium. Briefly, cells are grown overnight at 37° C. in MH broth and diluted in the same medium. In some cases, serial dilutions of the peptides are added to the microtiter plates in a volume of 100 μl followed by 10 μl of bacteria to give a final inoculum of 1×10^5 colony-forming units/ml. Plates are incubated at 37° C. for 24 hours and MICs are determined as the lowest peptide concentration that inhibited growth.
Identification of Antimicrobial Peptides for Gram-positive Bacteria. In a manner similar to testing against gram-negative bacteria, experiments were carried out to screen the 14 peptides used to identify antimicrobial peptides with significant activity against A. baumanii shown above against 20 different clinical isolates of Methicillin Resistant Staphylococcus aureus (MRSA) and Staphylococcus aureus.

Pseudomonas aeruginosa = details: for Pseudomonas aeruginosa MICGM: geometric mean, 6 different isolates, 24 hours at 37° C.; for MIC PAO 1: 37° C., 24 h, strain PAO1; for MIC GM (geometric mean of the MIC values): six P. aeruginosa strains; for MIC CP 204: strain CP204; for MIC M 2: strain M2; for MIC PA 14: strain PA14; for MIC PAK: strain PAK; for MIC WR 5: strain WR5
[2] = Hemolytic activity against human erythrocytes (HC50 / MHC, microtiter dilution); assay type: cell-based; details: human, 1% human erythrocytes, pH 7.4
Description: Hemoglobin release was determined spectrophotometrically at 570 nm. The hemolytic activity was determined as the peptide concentration that caused 50% hemolysis of erythrocytes after 18 h (HC50). […] HC50 was determined by a plot of peptide concentration versus percent lysis.

Acinetobacter baumannii = assay type: cell-based; details: for Acinetobacter baumannii MICGM: geometric mean, 11 different isolates, 24 hours at 37° C.
Description: as §1, §2
The biological activities of these six peptide analogs was determined against 11 clinical isolated of Acinetobacter baumannii (Table 9). Please note that the activities are reported in micromolar rather than microgram/ml. This allows a direct comparison on a molar basis with the effectiveness of molecules of different molecular weights whether peptides disclosed herein or antibiotics which in general are smaller in molecular mass. […] These are the highest antimicrobial activities observed in studies of antimicrobial peptides derived by modifying the peptide sequence of SEQ ID NO:24 (D1). D22 has the best hemolytic activity of the six analogs (D17-D22) and a therapeutic index of […] compared to […] for D1 (Table 9). D22 has no apparent advantage over D1 as determined in these experiments.

[3] = RP-HPLC retention as measure of overall peptide hydrophobicity; assay type: physicochemical; details: for Change in hydrophobicity (retention time) relative to PVL: 80° C., polar face substitution
Description: Crude and purified peptides were analyzed on an Agilent 1100 series liquid chromatograph (Little Falls, Del.). Runs were performed on a Zorbax 300 SB-C8 column (150×2.1 mm I.D.; 5 μm particle size, 300 Å pore size) from Agilent Technologies using linear AB gradient (1% acetonitrile/min) and a flow rate of 0.25 ml/min, where eluant A was 0.2% aqueous TFA, pH 2 and eluant B was 0.2% TFA in acetonitrile.

[4] = RP-HPLC temperature profiling (peptide self-association parameter PA); assay type: physicochemical; details: enantiomer pairs of V681 analogs, 5° C. to 80° C., relative to peptide C
Description: Temperature profiling analyses were performed on the same column in 3° C. increments, from 5° C. to 80° C., using a linear AB gradient of 0.5% acetonitrile/min, as described previously (30, 53, 92, 93).
Peptide self-association (i.e., the ability to oligomerize/dimerize) in aqueous solution is a very important parameter for antimicrobial activity (53, 92, 93). Without wishing to be bound by any particular theory, the present inventors postulated that monomeric random-coil antimicrobial peptides are best suited to pass through the capsule and cell wall of microorganisms prior to penetration into the cytoplasmic membrane, induction of α-helical structure and disruption of membrane structure to kill target cells (93). Thus, if the self-association ability of a peptide in aqueous media is too strong (e.g., forming stable folded dimers through interaction of their non-polar faces) this could decrease the ability of the peptide to dissociate to monomer, in addition oligomerization of the peptide can prevent it from effectively passing through the capsule and cell wall to reach the membrane. The ability of the peptides in the present study to self-associate was determined by the technique of RP-HPLC temperature profiling at pH 2 (29, 30, 38). The reason pH 2 is used to determine self-association of cationic AMPs is that highly positively charged peptides are frequently not eluted from reversed-phase columns at pH 7 due to non-specific binding to negatively charged silanols on the column matrix. This is not a problem at pH 2 since the silanols are protonated (i.e., neutral) and non-specific electrostatic interactions are eliminated. At pH 2, the interactions between the peptide and the reversed-phase matrix involve ideal retention behavior, i.e., only hydrophobic interactions between the preferred binding domain (nonpolar face) of the amphipathic molecule and the hydrophobic surface of the column matrix are present (39). […] Control peptide C is a monomeric random coil peptide in both aqueous and hydrophobic media; thus, its linear decrease in peptide retention behavior with increasing temperature within the range of 5° C. to 80° C. represents only the general effects of temperature due to greater solute diffusivity and enhanced mass transfer between the stationary and mobile phase at higher temperatures (55). To allow for these general temperature effects, the data for the control peptide was subtracted from each temperature profile as shown in FIG. 2B. Thus, the peptide self-association parameter, PA, represents the maximum change in peptide retention time relative to the random coil peptide C. Note that the higher the PA value, the greater the self-association.

CC[C@@H](C)[C@@H](NC(=O)[C@@H](C)NC(=O)[C@@H](CCCCN)NC(=O)[C@@H](CC(C)C)NC(=O)[C@@H](CC(C)C)NC(=O)[C@H](NC(=O)[C@@H](CCCCN)NC(=O)[C@@H](CC(C)C)NC(=O)[C@@H](CCCCN)NC(=O)[C@@H](CCCCN)NC(=O)[C@@H](CCCCN)NC(=O)[C@@H](CCCCN)NC(=O)[C@@H](CC(C)C)NC(=O)[C@@H](CCCCN)NC(=O)[C@@H](CO)NC(=O)[C@@H](Cc1ccccc1)NC(=O)[C@H](NC(=O)[C@@H](CCCCN)NC(=O)[C@@H](CC(C)C)NC(=O)[C@@H](Cc1ccccc1)NC(=O)[C@@H](CO)NC(=O)[C@@H](CCCCN)NC(=O)[C@@H](Cc1c[nH]c2ccccc12)NC(=O)[C@@H](CCCCN)NC(C)=O)[C@H](C)O)[C@H](C)O)C(=O)N[C@H](CO)C(=O)N[C@H](CCCCN)C(N)=O [Peptide D13, Ac-KWKSFLKTFSKLKKKKLKTLLKAISK-amide]
MIC GM (geometric mean) [1]: 8.6 µM (≈ 27.2 µg/mL) | Pseudomonas aeruginosa MICGM (Pseudomonas aeruginosa): 2.5 µM | HC50 at 18 h [2]: 106 µM | MIC GM (geometric mean) (Acinetobacter baumannii): 1.0 µM (≈ 3.16 µg/mL) | Acinetobacter baumannii MICGM (Acinetobacter baumannii): 1 µM

PAL: V681 with L-Ala at position 11, SEQ ID NO:14 (KWKSFLKTFKAAVKTVLHTALKAISS)
Change in hydrophobicity (retention time) relative to PVL [3]: +0.45 min

CC[C@@H](C)[C@@H](NC(=O)[C@@H](CC(C)C)NC(=O)[C@@H](CCCCN)NC(=O)[C@@H](CC(C)C)NC(=O)[C@@H](CC(C)C)NC(=O)[C@H](NC(=O)[C@@H](CCCCN)NC(=O)[C@@H](CC(C)C)NC(=O)[C@@H](CCCCN)NC(=O)[C@@H](CCCCN)NC(=O)[C@@H](CCCCN)NC(=O)[C@@H](CCCCN)NC(=O)[C@@H](CC(C)C)NC(=O)[C@@H](CCCCN)NC(=O)[C@@H](CO)NC(=O)[C@@H](Cc1ccccc1)NC(=O)[C@H](NC(=O)[C@@H](CCCCN)NC(=O)[C@@H](CC(C)C)NC(=O)[C@@H](Cc1ccccc1)NC(=O)[C@@H](CO)NC(=O)[C@@H](CCCCN)NC(=O)[C@@H](Cc1c[nH]c2ccccc12)NC(=O)[C@@H](CCCCN)NC(C)=O)[C@H](C)O)[C@H](C)O)C(=O)N[C@H](CO)C(=O)N[C@H](CCCCN)C(N)=O [Peptide D12, Ac-KWKSFLKTFSKLKKKKLKTLLKLISK-amide]
MIC GM (geometric mean) [1]: 5.2 µM (≈ 16.7 µg/mL) | Pseudomonas aeruginosa MICGM (Pseudomonas aeruginosa): 3.9 µM | HC50 at 18 h [2]: 18.3 µM | MIC GM (geometric mean) (Acinetobacter baumannii): 1.9 µM (≈ 6.09 µg/mL) | Acinetobacter baumannii MICGM (Acinetobacter baumannii): 1.9 µM

PKL: V681 with L-Lys at position 11, SEQ ID NO:17 (KWKSFLKTFKKAVKTVLHTALKAISS)
Change in hydrophobicity (retention time) relative to PVL [3]: -2.29 min

CC[C@@H](C)[C@@H](NC(=O)[C@@H](CC(C)C)NC(=O)[C@@H](CCCCN)NC(=O)[C@@H](CC(C)C)NC(=O)[C@@H](CC(C)C)NC(=O)[C@H](NC(=O)[C@@H](Cc1c[nH]cn1)NC(=O)[C@@H](CC(C)C)NC(=O)[C@@H](CCCCN)NC(=O)[C@H](NC(=O)[C@@H](CCCCN)NC(=O)[C@@H](CCCCN)NC(=O)[C@@H](CC(C)C)NC(=O)[C@@H](CO)NC(=O)[C@@H](CCCCN)NC(=O)[C@@H](Cc1ccccc1)NC(=O)[C@H](NC(=O)[C@@H](CCCCN)NC(=O)[C@@H](CC(C)C)NC(=O)[C@@H](Cc1ccccc1)NC(=O)[C@@H](CO)NC(=O)[C@@H](CCCCN)NC(=O)[C@@H](Cc1c[nH]c2ccccc12)NC(=O)[C@@H](CCCCN)NC(C)=O)[C@H](C)O)[C@H](C)O)[C@H](C)O)C(=O)N[C@H](CO)C(=O)N[C@H](CO)C(N)=O [Peptide D5, Ac-KWKSFLKTFKSLKKTKLHTLLKLISS-amide]
Hydrophobicity (retention time in RP-HPLC) ([3]; pH 2, room temperature): 80.44 min | MIC GM (geometric mean) [1]: 5.4 µM (≈ 17 µg/mL) | MIC PAO 1 (Pseudomonas aeruginosa; Brain Heart Infusion medium): 31.3 µg/mL (≈ 9.95 µM) | MIC GM (geometric mean of the MIC values) (Pseudomonas aeruginosa; Brain Heart Infusion medium): 22.1 µg/mL | MIC CP 204 (Pseudomonas aeruginosa; Brain Heart Infusion medium): 31.3 µg/mL (≈ 9.95 µM) | MIC M 2 (Pseudomonas aeruginosa; Brain Heart Infusion medium): 15.6 µg/mL (≈ 4.96 µM) | MIC PA 14 (Pseudomonas aeruginosa; Brain Heart Infusion medium): 15.6 µg/mL (≈ 4.96 µM) | MIC PAK (Pseudomonas aeruginosa; Brain Heart Infusion medium): 31.3 µg/mL (≈ 9.95 µM) | MIC WR 5 (Pseudomonas aeruginosa; Brain Heart Infusion medium): 15.6 µg/mL (≈ 4.96 µM) | MIC PAO 1 (Pseudomonas aeruginosa; Mueller Hinton medium): 7.8 µg/mL (≈ 2.48 µM) | MIC GM (geometric mean of the MIC values) (Pseudomonas aeruginosa; Mueller Hinton medium): 11.0 µg/mL | MIC CP 204 (Pseudomonas aeruginosa; Mueller Hinton medium): 15.6 µg/mL (≈ 4.96 µM) | MIC M 2 (Pseudomonas aeruginosa; Mueller Hinton medium): 7.8 µg/mL (≈ 2.48 µM) | MIC PA 14 (Pseudomonas aeruginosa; Mueller Hinton medium): 7.8 µg/mL (≈ 2.48 µM) | MIC PAK (Pseudomonas aeruginosa; Mueller Hinton medium): 15.6 µg/mL (≈ 4.96 µM) | MIC WR 5 (Pseudomonas aeruginosa; Mueller Hinton medium): 15.6 µg/mL (≈ 4.96 µM) | Pseudomonas aeruginosa MICGM (Pseudomonas aeruginosa): 3.5 µM | HC50 at 18 h [2]: 47 µg/mL and 14.9 µM | MIC GM (geometric mean) (Acinetobacter baumannii): 1.7 µM (≈ 5.35 µg/mL) | Acinetobacter baumannii MICGM (Acinetobacter baumannii): 1.7 µM

D-V681: D-enantiomer of V681 (KWKSFLKTFKSAVKTVLHTALKAISS; all D-amino acids)
PA (peptide self-association parameter) [4]: 7.2

D-NAL: enantiomer of NAD, SEQ ID NO:25 (KWKSFLKTFKSAAKTVLHTALKAISS; not fully specified; D-amino acids)
PA (peptide self-association parameter) [4]: 4.1
